Laboratory results reported in article PMC6272797, “Antitrypanosomal Acetylene Fatty Acid Derivatives from the Seeds of Porcelia macrocarpa (Annonaceae)” (Molecules, 2015).
Where two headings read alike, the source gives them in different places.

Tests used:
[1] = system: T. cruzi trypomastigotes (Y strain); experiment: Activity against T. cruzi trypomastigotes (MTT viability assay); type: cell-based, Trypanosoma cruzi; details: for SI (selectivity index): CC50 NCTC cells/IC50 trypomastigotes; for IC50: Trypanosoma cruzi, free trypomastigotes, read-out: IC50 T. cruzi trypomastigote; for IC50 / antitrypanosomal activity against T. cruzi trypomastigotes (in words): MTT; for antitrypanosomal activity against T. cruzi trypomastigotes (in words): in vitro
Protocol: T. cruzi trypomastigotes (Y strain) were maintained in LLC-MK2 (ATCC CCL 7) cells using RPMI-1640 medium supplemented with 2% FBS at 37 °C and 5% CO2-humidified incubator [34].
Free trypomastigotes obtained from LLC-MK2 cultures were counted in a Neubauer hemocytometer and seeded at 1 × 10^6/well in 96-well microplates. Tested compounds were incubated to the highest concentration of 300 μg/mL for 24 h at 37 °C in a 5% CO2 humidified incubator; using benznidazole as standard drug. The viability of the trypomastigotes was verified by the MTT assay as previously described.
The data obtained represent the mean and standard deviation of duplicate samples from three independent assays. The IC50 and CC50 values were calculated using sigmoid dose-response curves in Graph Pad Prism 5.0 software (GraphPad Software, San Diego, CA, USA), and the 95% confidence intervals are included in parentheses.

[2] = Cytotoxicity against mammalian cells (MTT assay); type: cell-based; details: mouse, NCTC clone 929 cells
Protocol: The 50% cytotoxic concentration (CC50) was determined in NCTC clone 929 cells. NCTC cells were seeded at 6 × 10^4 cells/well in 96-well microplates at 37 °C in a 5% CO2. […] The viability of the cells was determined by MTT assay at 570 nm. The Selectivity Index (SI) was determined considering the following equation: CC50 NCTC cells/IC50 trypomastigotes. […] The data obtained represent the mean and standard deviation of duplicate samples from three independent assays. The IC50 and CC50 values were calculated using sigmoid dose-response curves in Graph Pad Prism 5.0 software (GraphPad Software, San Diego, CA, USA), and the 95% confidence intervals are included in parentheses.

[3] = 24 h, 24 h, highest concentration 300 µg/mL, CI95% in parentheses
[4] = highest concentration 100 µg/mL, CI95% in parentheses

Row | Structure (SMILES) | IC50 [1, 3] | IC50 ([1]; 24 h, 24 h) | SI (selectivity index) [1] | CC50 at 48 h [2] | CC50 at 48 h [2, 4] | trypomastigote forms of T. cruzi killed ([1]; at the highest tested concentration (300 µg/mL), 24 h) | effectiveness relative to the standard drug benznidazole ([1]; comparison of IC50 against trypomastigotes) | antitrypanosomal activity against T. cruzi trypomastigotes (in words) [1]
1 | O=C(Cn1ccnc1[N+](=O)[O-])NCc1ccccc1 [Benznidazole, benznidazole, reference compound] | 139 µg/mL | 534 µM | 0.9 | 484 µM | 126 µg/mL | – | – | –
2 | CCCC#CC#CCCCCCCCCCCC(=O)OCC(COC(=O)CCCCCCCCCCC#CC#CCCC)OC(=O)CCCCCCC/C=C\CCCCCCCC [Compound 2, α,α'-dimacrocarpoyl-β-oleylglycerol] | > 300 µg/mL | – | – | – | – | – | – | inactive

Continued, in another order:

Row | IC50 [1, 3] | IC50 ([1]; 24 h, 24 h) | Structure (SMILES) | SI (selectivity index) [1] | CC50 at 48 h [2] | CC50 at 48 h [2, 4] | trypomastigote forms of T. cruzi killed ([1]; at the highest tested concentration (300 µg/mL), 24 h) | effectiveness relative to the standard drug benznidazole ([1]; comparison of IC50 against trypomastigotes) | antitrypanosomal activity against T. cruzi trypomastigotes (in words) [1]
3 | 10.7 µg/mL | 38.8 µM | CCCC#CC#CCCCCCCCCCCC(=O)O [Compound 1, 12,14-octadecadiynoic acid] | 4.1 | 160 µM | 44.3 µg/mL | 100% | approximately ten times more effective | displayed in vitro activity
4 | > 300 µg/mL | – | CCCCCCCCCCCCCCCCCC(=O)O [Compound 1a, octadecanoic acid] | – | – | – | – | – | –
5 | > 300 µg/mL | – | CCCC#CC#CCCCCCCCCCCC(=O)OCC(O)COC(=O)CCCCCCC/C=C\CCCCCCCC (stereo not drawn) [Compound 3, α-macrocarpoyl-α'-oleylglycerol] | – | – | – | – | – | inactive
